The source of these data is patent publication US20250171438A1 (Agios Pharmaceuticals, Inc., priority 2022, published 2025).

Read-outs that look alike come from different tables or passages of the source.

This assay addresses T1, human PAH with the R408W mutation (Homo sapiens, UniProt P00439, R408W).
T1 construct: expressed in transfected cells
T1 sequence (P00439 1-452 R408W): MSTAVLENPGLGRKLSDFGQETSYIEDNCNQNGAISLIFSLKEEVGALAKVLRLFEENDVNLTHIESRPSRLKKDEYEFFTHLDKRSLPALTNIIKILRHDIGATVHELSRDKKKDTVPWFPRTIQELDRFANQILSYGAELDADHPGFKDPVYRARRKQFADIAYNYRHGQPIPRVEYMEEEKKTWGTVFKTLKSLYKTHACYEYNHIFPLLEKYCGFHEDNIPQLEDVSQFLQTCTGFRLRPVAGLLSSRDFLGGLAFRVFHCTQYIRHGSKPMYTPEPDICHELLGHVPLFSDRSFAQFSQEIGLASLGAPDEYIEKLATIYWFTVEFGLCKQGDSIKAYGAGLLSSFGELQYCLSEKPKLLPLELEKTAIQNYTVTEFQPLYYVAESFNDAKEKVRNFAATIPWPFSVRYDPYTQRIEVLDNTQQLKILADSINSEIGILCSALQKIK
The assay can be described thus: Cell Based Phenylalanine Flux Assay. Conditions: A375 cells expressing human R408W PAH, 13C-Tyrosine by LC-MS, average where tested multiple times, read-out: AC50.

Experimental: Compounds were resuspended in DMSO, and 2-fold serial dilutions were performed to generate a 10-point dose curve. Compounds were added to plated cells in a total volume of 100 pal, and a final DMSO concentration of 0.5%. Each compound was tested in duplicate. Following compound addition, cells were placed in a 5% CO2, 37° C. tissue culture incubator for 24 hrs. After the incubation period, 20 μM sepiapterin and 800 μM 13C9,15N-Phenylalanine were added. After 4 hours, cell media was removed. An aliquot of 10 μl of cell media was combined with 200 μl of extraction buffer (80% acetonitrile/20% H2O) for each well. Determination of ^13C-Tyrosine concentration was assessed by liquid chromatography mass spectrometry.
Where a compound was tested multiple times, the average value of the tests is reported.

A word on the AC50: it is the midpoint of the concentration-response curve, whichever way the signal moves. On to `O=C(CCc1ncc(Cl)s1)N1CCc2[nH]cnc2[C@@H]1c1nc2ccccc2s1` [Example 1026, (R)-1-(4-(benzo[d]thiazol-2-yl)-6,7-dihydro-1H-imidazo[4,5-c]pyridin-5(4H)-yl)-3-(5-chlorothiazol-2-yl)propan-1-one], for which the AC50 (24 hrs compound incubation) lay in the range of 1 to 5 µM.

For `Cc1nnc(C(=O)N2CCc3[nH]cnc3C2c2nc3cc(F)ccc3s2)s1` (centres unmarked), the AC50 (24 hrs with compound) is above 5 µM.

`O=C(c1ncco1)N1CCc2[nH]cnc2C1c1nc2ccc(F)cc2s1` (centres unmarked): the AC50 (24 hrs with compound) was above 5 µM.

Turning to `O=C(c1cnn2cc(Cl)ccc12)N1CCc2[nH]cnc2C1c1nc2ccc(F)cc2s1` (centres unmarked), the concentration at half-maximal activity (AC50) (24 hrs with compound) fell in the range of 1 to 5 µM.

For the molecule `O=C(c1ocnc1C1CC1)N1CC2(CC2)c2[nH]cnc2[C@@H]1c1nc2ccccc2s1` [Example 1670, (R)-(4′-(benzo[d]thiazol-2-yl)spiro[cyclopropane-1,7′-imidazo[4,5-c]pyridin]-5′(1′H,4′H,6′H)-yl)(4-cyclopropyloxazol-5-yl)methanone], the AC50 (24 hrs compound incubation) was in the range of 1 to 5 µM.

As to `O=C(C1CCC1)N1CCc2[nH]cnc2[C@H]1c1nc2ccccc2[nH]1` [(S)-(4-(1H-benzo[d]imidazol-2-yl)-6,7-dihydro-1H-imidazo[4,5-c]pyridin-5(4H)-yl)(cyclobutyl)methanone], where the note is “24 hrs with compound”, the AC50 fell in the range of 1 to 5 µM.

In the case of `CC(C)(C)c1ncc(C(=O)N2CCc3[nH]cnc3[C@@H]2c2nc3c(F)cccc3s2)o1` [Example 1429, (R)-(2-(tert-butyl)oxazol-5-yl)(4-(4-fluorobenzo[d]thiazol-2-yl)-6,7-dihydro-1H-imidazo[4,5-c]pyridin-5(4H)-yl)methanone], the AC50 (24 hrs compound incubation) lay in the range of 0.5 to 1 µM.

With `O=C(c1nnc(-c2ccn(C(F)F)n2)o1)N1CCc2[nH]cnc2[C@@H]1c1nc2c(F)cccc2s1` [Example 1887, (R)-(5-(1-(difluoromethyl)-1H-pyrazol-3-yl)-1,3,4-oxadiazol-2-yl)(4-(4-fluorobenzo[d]thiazol-2-yl)-6,7-dihydro-1H-imidazo[4,5-c]pyridin-5(4H)-yl)methanone], the AC50 (24 hrs compound incubation) lay in the range of 1 to 5 µM.

In the case of `O=C(CCc1nccs1)N1CCc2[nH]cnc2[C@H]1c1ncc(-c2ccccc2)s1` [Example 2141], the AC50 (24 hrs compound incubation) is below 0.5 µM.

For `Cc1nc(C(F)(F)F)oc1C(=O)N1CCc2[nH]cnc2[C@@H]1c1nc2ccccc2s1` [Example 1394, (R)-(4-(benzo[d]thiazol-2-yl)-6,7-dihydro-1H-imidazo[4,5-c]pyridin-5(4H)-yl)(4-methyl-2-(trifluoromethyl)oxazol-5-yl)methanone], the half-maximal activity concentration (AC50) (24 hrs compound incubation) lay in the range of 1 to 5 µM.

Turning to `O=C(c1cncs1)N1CCc2[nH]cnc2[C@H]1c1nc2ccc(Br)cc2[nH]1` [Example 947, (S)-(4-(6-bromo-1H-benzo[d]imidazol-2-yl)-6,7-dihydro-1H-imidazo[4,5-c]pyridin-5(4H)-yl)(thiazol-5-yl)methanone], the AC50 (24 hrs compound incubation) was in the range of 0.5 to 1 µM.

Turning to `O=C(c1nnc(CCC(F)(F)F)o1)N1CCc2[nH]cnc2C1c1nc2ccccc2s1` (centres unmarked), the AC50 (24 hrs with compound) is above 5 µM.

Regarding `N#Cc1nc(NC2CC2)oc1C(=O)N1CCc2[nH]cnc2[C@H]1c1nc2ccccc2s1` [Example 1699, (S)-5-(4-(benzo[d]thiazol-2-yl)-4,5,6,7-tetrahydro-1H-imidazo[4,5-c]pyridine-5-carbonyl)-2-(cyclopropylamino)oxazole-4-carbonitrile], the AC50 (24 hrs compound incubation) lay in the range of 1 to 5 µM.

Take `CC(C)(O)c1ccc2c(C(=O)N3CCc4[nH]cnc4[C@H]3c3nc4ccccc4s3)cnn2c1` [Example 1473]: where the note is “24 hrs compound incubation”, the AC50 is below 0.5 µM.

Turning to `CN(C)CCn1cc(C(=O)N2CCc3[nH]cnc3[C@@H]2c2nc3c(F)cccc3s2)c(C(F)(F)F)n1` [Example 1642, (R)-(1-(2-(dimethylamino)ethyl)-3-(trifluoromethyl)-1H-pyrazol-4-yl)(4-(4-fluorobenzo[d]thiazol-2-yl)-6,7-dihydro-1H-imidazo[4,5-c]pyridin-5(4H)-yl)methanone], under “24 hrs compound incubation”, the AC50 lay in the range of 0.5 to 1 µM.

As for `O=C(c1nnc(NC2CC2)o1)N1CCc2[nH]cnc2[C@@H]1c1nc2ccccc2s1` [Example 1594, (R)-(4-(benzo[d]thiazol-2-yl)-6,7-dihydro-1H-imidazo[4,5-c]pyridin-5(4H)-yl)(5-(cyclopropylamino)-1,3,4-oxadiazol-2-yl)methanone], the AC50 (24 hrs compound incubation) lay in the range of 1 to 5 µM.

Regarding `c1cnc(N2CCc3[nH]cnc3[C@H]2c2nc3ccccc3s2)nc1` [Example 1438], the AC50 (24 hrs compound incubation) was below 0.5 µM.

With `Cc1cnc(CCC(=O)N2CCc3[nH]cnc3[C@H]2c2nc3ccccc3s2)s1` [Example 1031], the AC50 (24 hrs compound incubation) lay in the range of 0.5 to 1 µM.

As for `COCc1nc(Br)c(C(=O)N2CCc3[nH]cnc3[C@@H]2c2nc3c(F)cccc3s2)o1` [Example 1775, (R)-(4-bromo-2-(methoxymethyl)oxazol-5-yl)(4-(4-fluorobenzo[d]thiazol-2-yl)-6,7-dihydro-1H-imidazo[4,5-c]pyridin-5(4H)-yl)methanone], the concentration at half-maximal activity (AC50) (24 hrs compound incubation) was 0.5 to 1 µM.

Turning to `CC(=O)Cn1cc(C(=O)N2CCc3[nH]cnc3[C@@H]2c2nc3c(F)cccc3s2)c(Cl)n1` [Example 1992, (R)-1-(3-chloro-4-(4-(4-fluorobenzo[d]thiazol-2-yl)-4,5,6,7-tetrahydro-1H-imidazo[4,5-c]pyridine-5-carbonyl)-1H-pyrazol-1-yl)propan-2-one], the AC50 (24 hrs compound incubation) is above 5 µM.

For the molecule `N#Cc1ncoc1C(=O)N1CCc2[nH]cnc2[C@@H]1c1nc2c(F)cccc2s1` [Example 1662, (R)-5-(4-(4-fluorobenzo[d]thiazol-2-yl)-4,5,6,7-tetrahydro-1H-imidazo[4,5-c]pyridine-5-carbonyl)oxazole-4-carbonitrile], the AC50 (24 hrs compound incubation) was in the range of 1 to 5 µM.

On to `O=C(c1cncs1)N1CCc2[nH]cnc2[C@@H]1c1nc2c(F)cccc2s1` [Example 1218, (R)-(4-(4-fluorobenzo[d]thiazol-2-yl)-6,7-dihydro-1H-imidazo[4,5-c]pyridin-5(4H)-yl)(thiazol-5-yl)methanone], for which, under “24 hrs compound incubation”, the AC50 was in the range of 1 to 5 µM.

Consider `CN(C)CCn1cc(C(=O)N2CCc3[nH]cnc3C2c2nc3ccccc3s2)c(C#N)n1` (centres unmarked), for which the AC50 (24 hrs with compound) lay within 1 to 5 µM.

Take `O=C(c1cnco1)N1CC2(CC2)c2[nH]cnc2C1c1nc2ccccc2s1` (centres unmarked): the AC50 (24 hrs with compound) is above 5 µM.

As for `Cn1ncc(-c2ncc(C(=O)N3CCc4[nH]cnc4[C@H]3c3nc4ccccc4s3)s2)c1C(F)(F)F` [Example 1407], the AC50 (24 hrs compound incubation) is below 0.5 µM.

For the molecule `CC(C)(O)c1ncc(C(=O)N2CCc3[nH]cnc3[C@@H]2c2nc3ccccc3s2)o1` [Example 1447, (R)-(4-(benzo[d]thiazol-2-yl)-6,7-dihydro-1H-imidazo[4,5-c]pyridin-5(4H)-yl)(2-(2-hydroxypropan-2-yl)oxazol-5-yl)methanone], the AC50 (24 hrs compound incubation) was in the range of 1 to 5 µM.

Regarding `Cc1nc(-c2ccccn2)c(C(=O)N2CCc3[nH]cnc3C2c2nc3c(F)cccc3s2)o1` (centres unmarked), the AC50 (24 hrs with compound) is above 5 µM.

`O=C(c1nc2ccccc2s1)N1CCc2[nH]cnc2C1c1nc2cccc(F)c2s1` (centres unmarked): the AC50 (24 hrs with compound) fell in the range of 1 to 5 µM.

Consider `Cn1ncc(C(=O)N2CCc3[nH]cnc3C2c2nc3c(F)cccc3s2)c1C(F)(F)F` (centres unmarked), for which the AC50 (24 hrs with compound) was 1 to 5 µM.

With `O=C(c1nncs1)N1CCc2[nH]cnc2[C@H]1c1nc2ccc(Br)cc2[nH]1` [Example 977, (S)-(4-(6-bromo-1H-benzo[d]imidazol-2-yl)-6,7-dihydro-1H-imidazo[4,5-c]pyridin-5(4H)-yl)(1,3,4-thiadiazol-2-yl)methanone], the AC50 (24 hrs compound incubation) was in the range of 0.5 to 1 µM.

`O=C(CCC1CC1)N1CCc2[nH]cnc2[C@H]1c1nc2ccccc2s1` [Example 1021]: under “24 hrs compound incubation”, the AC50 was below 0.5 µM.

Turning to `O=C(c1cnn2cc(Br)ccc12)N1CCc2[nH]cnc2C1c1nc2ccc(F)cc2s1` (centres unmarked), the AC50 (24 hrs with compound) lay in the range of 1 to 5 µM.
